Assay results as given in patent US11291208B2, “Ternary herbicide combinations” (Bayer CropScience Aktiengesellschaft, priority 2013, dated 2022).

Key:
Format in all cases: in vivo
[1] = system: TRZDU: Triticum aestivum (durum wheat); test: Crop damage in field trials (maximum damage observed in the crop); details: TCM 7.5 g/ha
Experimental: (§1) The seeds or rhizome pieces of typical harmful plants were planted and grown under natural outdoor conditions. After the harmful plants had emerged, they were treated, as a rule at the 2- to 4-leaf stage, with various dosages of the compositions according to the invention at a water application rate of […] (converted).
(§2) After the treatment (approx. 4-6 weeks after application), the herbidical activity of the active compounds or active compound mixtures was scored visually by comparing the treated plots with the untreated control plots. Damage and development of all above-ground parts of the plants was recorded. Scoring was done on a percentage scale (100% action=all plants dead; 50% action=50% of the plants and green plant parts dead; 0% action=no discernible action=like control plot). The score figures of in each case 4 plots were averaged.
(§3) The dose rates of herbicidal ingredients used in each case are indicated for the respective active ingredient in brackets and refer to the amount of active ingredient per hectare (g/ha).
(§4) The herbicidal effects observed for the herbicide (mixtures) are indicated in % Activity against the respective weed. The % Damage indicated refers to the maximum damage observed in the respective crop.
(§5) The results of the treatments are reflected in the Tables below, and the activity measured for the independent use of the active compounds (A+B)+(C) is stated in brackets. The treatments were carried out using Mesosulfuron-methyl (A1-1) or Mesosulfuron-methyl-sodium (A1-2) as component (A), and Iodosulfuron-methyl (B1-1) or Iodosulfuron-methyl-sodium (B1-2) as component (B). The results of the treatments in these cases were essentially identical.

[2] = system: TRZAW: Triticum aestivum (soft wheat); test: as above
Experimental: as §1, §2, §3, §4, §5

VERPE: Veronica persica = test: Herbicidal action, outdoor/field trials, post-emergence; details: crop TRZAW, field trials
Experimental: as §1, §2
(§6) The growth stages of the different weed species are indicated according to the BBCH monograph “Growth stages of mono- and dicotyledonous plants”, 2nd edition, 2001, ed. Uwe Meier, Federal Biological Research Centre for Agriculture and Forestry (Biologische Bundesanstalt für Land and Forstwirtschaft). The respective BBCH stages are indicated in brackets for the different weed species.
as §3, §4, §5

PAPRH: Papaver rhoeas = test: as above; details: field trials
Experimental: as §1, §2, §6, §3, §4, §5

[3] = system: LAMAM: Lamium amplexicaule; test: as above; details: TCM 7.5 g/ha, LAMAM (32), crop TRZAW, field trials
Experimental: as §1, §2, §6, §3, §4, §5

AVEST: Avena sterilis = test: as above; details: TCM 7.5 g/ha, AVEST (23), crop TRZDU, field trials
Experimental: as §1, §2, §6, §3, §4, §5

[4] = system: LOLMU: Lolium multiflorum; test: as above; details: TCM 7.5 g/ha, LOLMU (23), crop TRZDU, field trials
Experimental: as §1, §2, §6, §3, §4, §5

CENCY: Centaurea Cyanus = test: as above; details: crop TRZAW, field trials
Experimental: as §1, §2, §6, §3, §4, §5

[5] = system: GERDI: Geranium dissectum; test: as above; details: crop TRZAW, field trials
Experimental: as §1, §2, §6, §3, §4, §5

LOLRI: Lolium rigidum = test: as above
Experimental: as §1, §2, §6, §3, §4, §5

PICEC: Picris echioides = test: as above; details: Helminthotheca echioides, TCM 7.5 g/ha, PICEC (22), crop TRZDU, field trials
Experimental: as §1, §2, §6, §3, §4, §5

VIOAR: Viola arvensis = test: as above; details: TCM 7.5 g/ha, VIOAR (15), crop TRZAW, field trials
Experimental: as §1, §2, §6, §3, §4, §5

[6] = system: MATIN: Matricaria inodora; test: as above; details: Tripleurospermum inodorum, TCM 7.5 g/ha, MATIN (19), crop TRZAW, field trials
Experimental: as §1, §2, §6, §3, §4, §5

LAMPU: Lamium purpureum = test: as above; details: TCM 7.5 g/ha, LAMPU (61), crop TRZAW, field trials
Experimental: as §1, §2, §6, §3, §4, §5

GALAP: Galium aparine = test: as above; details: crop TRZAW, field trials
Experimental: as §1, §2, §6, §3, §4, §5

[7] = system: FUMOF: Fumaria officinalis; test: as above; details: HALXF 276.5 g/ha, crop TRZAW, field trials
Experimental: as §1, §2, §6, §3, §4, §5

BROST: Bromus sterilis = test: as above; details: PXD 60 g/ha, BROST (25), crop TRZAW, field trials
Experimental: as §1, §2, §6, §3, §4, §5

[8] = system: VERHE: Veronica hederifolia; test: as above; details: PXD 60 g/ha, VERHE (71), crop TRZAW, field trials
Experimental: as §1, §2, §6, §3, §4, §5

COC(=O)c1csc(C)c1S(=O)(=O)NC(=O)n1nc(OC)n(C)c1=O [TCM, methyl 4-[(4,5-dihydro-3-methoxy-4-methyl-5-oxo-1H-1,2,4-triazol-1-yl)carbonylsulfamoyl]-5-methylthiophene-3-carboxylate]
% Damage ([1]; listed as AVEST (23)): 0% | % Damage ([1]; listed as AVEST (23), Table 1B): 0% | % Damage ([1]; listed as LOLMU (23)): 0% | % Damage ([1]; listed as LOLMU (23), Table 1B): 0% | % Damage ([1]; listed as LOLRI (29)): 5% | % Damage ([1]; listed as LOLRI (29), Table 1B): 5% | % Damage ([1]; listed as PAPRH (15)): 0% | % Damage ([1]; listed as PAPRH (15), Table 1B): 0% | % Damage ([1]; listed as PICEC (22)): 5% | % Damage ([1]; listed as PICEC (22), Table 1B): 5% | % Damage ([2]; TCM 7.5 g/ha, listed as CENCY (19)): 0% | % Damage ([2]; TCM 7.5 g/ha, listed as CENCY (19), Table 2B): 0% | % Damage ([2]; TCM 7.5 g/ha, listed as GALAP (23)): 0% | % Damage ([2]; TCM 7.5 g/ha, listed as GALAP (23), Table 2B): 0% | % Damage ([2]; TCM 7.5 g/ha, listed as GERDI (29)): 0% | % Damage ([2]; TCM 7.5 g/ha, listed as GERDI (29), Table 2B): 0% | % Damage ([2]; TCM 7.5 g/ha, listed as LAMAM (32)): 1% | % Damage ([2]; TCM 7.5 g/ha, listed as LAMAM (32), Table 2B): 1% | % Damage ([2]; TCM 7.5 g/ha, listed as LAMPU (61)): 1% | % Damage ([2]; TCM 7.5 g/ha, listed as LAMPU (61), Table 2B): 1% | % Damage ([2]; TCM 7.5 g/ha, listed as MATIN (19)): 0% | % Damage ([2]; TCM 7.5 g/ha, listed as MATIN (19), Table 2B): 0% | % Damage ([2]; TCM 7.5 g/ha, listed as VERPE): 1% | % Damage ([2]; TCM 7.5 g/ha, listed as VERPE, Table 2B): 1% | % Damage ([2]; TCM 7.5 g/ha, listed as VIOAR (15)): 0% | % Damage ([2]; TCM 7.5 g/ha, listed as VIOAR (15), Table 2B): 0% | inhibition at 7.5 g/ha (VERPE: Veronica persica; TCM 7.5 g/ha, VERPE): 10% | inhibition at 7.5 g/ha (PAPRH: Papaver rhoeas; TCM 7.5 g/ha, PAPRH (15), crop TRZDU): 70% | inhibition at 7.5 g/ha [3]: 68% | inhibition at 7.5 g/ha (AVEST: Avena sterilis): 33% | inhibition at 7.5 g/ha [4]: 43% | inhibition at 7.5 g/ha (CENCY: Centaurea Cyanus; TCM 7.5 g/ha, CENCY (19)): 38% | inhibition at 7.5 g/ha ([5]; TCM 7.5 g/ha, GERDI (29)): 63% | inhibition at 7.5 g/ha (LOLRI: Lolium rigidum; TCM 7.5 g/ha, LOLRI (29), crop TRZDU, field trials): 52% | inhibition at 7.5 g/ha (PICEC: Picris echioides): 69% | inhibition at 7.5 g/ha (VIOAR: Viola arvensis): 38% | inhibition at 7.5 g/ha [6]: 20% | inhibition at 7.5 g/ha (LAMPU: Lamium purpureum): 70% | inhibition at 7.5 g/ha (GALAP: Galium aparine; TCM 7.5 g/ha, GALAP (23)): 37%

COc1cc(OC)n2nc(NS(=O)(=O)c3c(C(F)(F)F)ccnc3OC)nc2n1 [PYX, N-(5,7-dimethoxy[1,2,4]triazolo[1,5-a]pyrimidin-2-yl)-2-methoxy-4-(trifluoromethyl)-3-pyridinesulfonamide]
inhibition at 17 g/ha (LOLRI: Lolium rigidum; PYX 17 g/ha, LOLRI (10)): 20%

COc1c(Cl)ccc(-c2cc(N)c(Cl)c(C(=O)O)n2)c1F [HALXF, 4-amino-3-chloro-6-(4-chloro-2-fluoro-3-methoxyphenyl)-2-pyridinecarboxylic acid]
% Damage ([2]; HALXF 276.5 g/ha, listed as CENCY): 0% | % Damage ([2]; HALXF 276.5 g/ha, listed as FUMOF): 0% | % Damage ([2]; HALXF 276.5 g/ha, listed as GALAP): 0% | % Damage ([2]; HALXF 276.5 g/ha, listed as PAPRH): 0% | inhibition at 276.5 g/ha (PAPRH: Papaver rhoeas; HALXF 276.5 g/ha, PAPRH, crop TRZAW): 75% | inhibition at 276.5 g/ha [7]: 85% | inhibition at 276.5 g/ha (CENCY: Centaurea Cyanus; HALXF 276.5 g/ha, CENCY): 45% | inhibition at 276.5 g/ha (GALAP: Galium aparine; HALXF 276.5 g/ha, GALAP): 73%

CCc1cc(C)cc(CC)c1-c1c(OC(=O)C(C)(C)C)n2n(c1=O)CCOCC2 [PXD, 8-(2,6-diethyl-4-methylphenyl)-1,2,4,5-tetrahydro-7-oxo-7H-pyrazolo[1,2-d][1,4,5]oxadiazepin-9-yl 2,2-dimethylpropanoate]
% Damage ([2]; PXD 60 g/ha, listed as BROST (25)): 0% | % Damage ([2]; PXD 60 g/ha, listed as CENCY (38)): 15% | % Damage ([2]; PXD 60 g/ha, listed as GERDI (19)): 4% | % Damage ([2]; PXD 60 g/ha, listed as VERHE (71)): 0% | % Damage ([2]; PXD 60 g/ha, listed as VERPE (31)): 0% | inhibition at 60 g/ha (VERPE: Veronica persica; PXD 60 g/ha, VERPE (31)): 0% | inhibition at 60 g/ha (BROST: Bromus sterilis): 0% | inhibition at 60 g/ha (CENCY: Centaurea Cyanus; PXD 60 g/ha, CENCY (38)): 60% | inhibition at 60 g/ha ([5]; PXD 60 g/ha, GERDI (19)): 30% | inhibition at 60 g/ha [8]: 13%
